Tests used:
[1] = Permeability on Caco-2 cells monolayers; format: in vitro ADME; details: human, with Elacridar 10 µM (PgP inhibitor), Papp A>B with PgP inhibitor Elacridar, 10 μM compound, read-out: Passive Permeability
Method: Even more advantageously, the compounds of formula (I) of the present invention are also endowed with a good permeability profile that, in its turn, can ensure a suitable bioavailability for an oral administration. The permeability was assessed in human Caco 2 cell line, an in vitro model that mimic human gastrointestinal barrier and so useful to predic oral absorption.
The permeability of the compounds of the present invention was evaluated performing the assay on Caco-2 cells monolayers (human colon adenocarcinoma immortalized cell) by measuring the transport of compound (absorption and secretion) in both directions: apical to basolateral direction (A>B) and basolateral to apical (B>A) with and without PgP inhibitor (Elacridar).
The cells, purched from ReadyCell in 96 well format (Cod. KRECE-CCR50), were cultured by the supplier for 21 day on transwell supports in DMEM 1 g/L glucose culture medium supplemented with Fetal Bovin Sierum (10%), Glutamine 200 mM (1%) and Penicillin 10000 U/ml-10 mg/ml Streptomycin (1%).
On day 21 of colture, cell monolayers integrity was verified by measuring the trans-epithelial electric resistance (TEER) using the EVOM equipment (Endohm, WPI, Germany) and studying the apparent permeability (Papp) of reference compounds (Sulpiride and Metoprolol). Furthermore, as a control, the Talinolol 10 uM (Pgp efflux substrate) with and without Elacridar in both directions was used.
The sample solution was prepared dissolving test compound in DMSO at the concentration of 10 mM and then diluted in the Assay Buffer (Hank's Balance Salt Solution) warmed at 37° C. before use, to give the 10 μM Compound working solution with and without 10 μM Elacridar. These working solutions were added to donor compartment (apical for A>B direction and basolateral for B>A direction) and Assay Buffer (Hank's Balance Salt Solution) to the receiver compartment (basolateral for A>B direction and apical for B>A direction). The plate was incubated at 37° C. for 120 min, all incubation were conducted in triplicates. At the end of incubation, samples from donor and receiver compartments were collected for HPLC-MS/MS analyses.
The permeability coefficients (Papp) in both directions: apical to basolateral (A>B) and basolateral to apical (B>A) with and without PgP inhibitor (Elacridar) was calculated in nm/sec, using the following equation:
[formula] • where: • Cr=measured concentration in the receiver well at the time t (expressed as IS ratio) • Vr=volume of the receiver well (ml) • t=time (sec) • A=membrane surface area (cm^2) • C0=initial donor concentration • Passive Papp is considered Papp A>B with PgP inhibitor Elacridar.

[2] = biological target: human recombinant LPA1 expressed in CHO cells (Homo sapiens (Human), UniProt Q92633); experiment: LPA1 antagonist FLIPR calcium assay in CHO-hLPA1 cells; format: cell-based; details: range of activity; CHO-hLPA1, LPA EC80, Ca2+ mobilization; read-out: LPA1 IC50
Sequence of human recombinant LPA1 expressed in CHO cells (Q92633 whole entry): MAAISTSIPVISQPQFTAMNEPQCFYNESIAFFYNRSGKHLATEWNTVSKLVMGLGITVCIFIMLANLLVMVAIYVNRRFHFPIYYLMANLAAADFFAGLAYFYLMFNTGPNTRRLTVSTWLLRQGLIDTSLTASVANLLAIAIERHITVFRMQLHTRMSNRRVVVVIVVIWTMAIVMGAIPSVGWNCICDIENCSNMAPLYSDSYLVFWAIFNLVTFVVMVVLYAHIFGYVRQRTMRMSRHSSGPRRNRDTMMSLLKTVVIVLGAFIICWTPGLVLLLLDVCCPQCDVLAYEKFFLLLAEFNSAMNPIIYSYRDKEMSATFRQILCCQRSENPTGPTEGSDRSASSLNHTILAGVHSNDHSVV
Procedure, shortened: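 CHO cells expressing human LPA1 loaded with Cal-520 AM (5 μM, with 2.5 mM probenecid) 30 min at 37 °C. Baseline-subtracted peak fluorescence on FLIPR converted to % inhibition; pIC50 from four-parameter logistic fit.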

BSEP = BSEP (Homo sapiens (Human), UniProt O95342); experiment: BSEP inhibition: biliary clearance of Taurocolic Acid in sandwich-cultured human hepatocytes; format: in vitro ADME; details: sandwich-cultured cryopreserved human hepatocytes, probe Taurocolic Acid (TCA); 50 μM test compound, 10 μM TCA, human hepatocytes sandwich configuration
Sequence of BSEP (O95342 whole entry): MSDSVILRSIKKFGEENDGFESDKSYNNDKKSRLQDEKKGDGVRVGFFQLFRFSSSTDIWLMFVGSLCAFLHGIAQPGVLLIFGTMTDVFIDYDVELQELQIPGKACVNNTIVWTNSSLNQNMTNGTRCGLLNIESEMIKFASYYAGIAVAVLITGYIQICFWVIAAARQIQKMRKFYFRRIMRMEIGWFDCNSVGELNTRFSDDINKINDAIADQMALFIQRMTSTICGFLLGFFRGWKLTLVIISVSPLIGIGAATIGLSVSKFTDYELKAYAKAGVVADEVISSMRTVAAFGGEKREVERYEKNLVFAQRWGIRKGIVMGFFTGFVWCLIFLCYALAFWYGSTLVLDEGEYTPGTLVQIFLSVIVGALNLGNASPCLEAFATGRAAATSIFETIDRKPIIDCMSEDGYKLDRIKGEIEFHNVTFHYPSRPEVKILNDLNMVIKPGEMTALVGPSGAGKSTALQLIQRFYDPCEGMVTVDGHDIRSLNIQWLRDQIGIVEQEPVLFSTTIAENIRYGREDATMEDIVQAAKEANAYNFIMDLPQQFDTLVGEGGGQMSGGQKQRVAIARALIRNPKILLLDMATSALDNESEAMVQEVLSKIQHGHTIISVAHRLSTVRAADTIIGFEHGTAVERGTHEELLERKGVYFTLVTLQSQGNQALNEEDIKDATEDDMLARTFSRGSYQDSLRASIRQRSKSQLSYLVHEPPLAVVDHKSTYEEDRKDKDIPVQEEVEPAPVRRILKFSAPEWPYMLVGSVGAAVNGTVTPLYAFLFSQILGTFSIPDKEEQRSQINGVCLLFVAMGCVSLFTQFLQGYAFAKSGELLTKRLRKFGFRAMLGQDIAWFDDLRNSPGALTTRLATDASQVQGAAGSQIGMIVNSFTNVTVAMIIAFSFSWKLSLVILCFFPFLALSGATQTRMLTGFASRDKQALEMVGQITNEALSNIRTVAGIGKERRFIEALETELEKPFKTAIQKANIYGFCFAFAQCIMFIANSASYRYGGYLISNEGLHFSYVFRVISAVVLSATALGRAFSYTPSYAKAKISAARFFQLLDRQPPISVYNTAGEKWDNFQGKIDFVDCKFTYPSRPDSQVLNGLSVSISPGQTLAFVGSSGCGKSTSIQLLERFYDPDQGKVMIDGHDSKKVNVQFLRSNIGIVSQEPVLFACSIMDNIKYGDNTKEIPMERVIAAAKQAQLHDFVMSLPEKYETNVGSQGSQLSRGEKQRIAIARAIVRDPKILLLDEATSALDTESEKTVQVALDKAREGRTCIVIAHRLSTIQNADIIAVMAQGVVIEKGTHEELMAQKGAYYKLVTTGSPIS
Procedure, shortened: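 Cryopreserved human hepatocytes were sandwich-cultured between collagen layers for 5 days, then incubated for 10 min at 37 °C in HBSS+ with 10 μM taurocholic acid, with or without 50 μM test compound. Bile content was released with Ca2+/Mg2+-free HBSS and quantified by HPLC-MS/MS. Inhibition is the percent reduction in TCA biliary clearance.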

SMILES | Papp at 120 min, 10 µM [1] [×10⁻⁶ cm/s] | IC50 [2] [nM] | inhibition at 10 min, 50 μM (BSEP) [%]
Cc1nc(-c2onc(C)c2NC(=O)O[C@H](C)c2ccccc2F)ccc1NC(=O)[C@H]1CCCC[C@@H]1C(=O)O [Example 24, (1S,2S)-2-((6-(4-((((R)-1-(2-fluorophenyl)ethoxy)carbonyl)amino)-3-methylisoxazol-5-yl)-2-methylpyridin-3-yl)carbamoyl)cyclohexane-1-carboxylic acid] | ≥ 1.5 | < 50 | ≤ 50
Cc1nc(-c2onc(C)c2NC(=O)O[C@H](C)c2ccccc2C(F)(F)F)ccc1NC(=O)[C@H]1CCCC[C@@H]1C(=O)O [Example 25, (1S,2S)-2-((2-methyl-6-(3-methyl-4-((((R)-1-(2-(trifluoromethyl)phenyl)ethoxy)carbonyl)amino)isoxazol-5-yl)pyridin-3-yl)carbamoy1)cyclohexane-1-carboxylic acid] | ≥ 1.5 | 50 to 250 | ≤ 50
Cc1nc(-c2onc(C)c2NC(=O)O[C@H](C)C2CCCC2)ccc1NC(=O)[C@H]1CCCC[C@@H]1C(=O)O [Example 26, (1S,2S)-2-((6-(4-((((R)-1-cyclopentylethoxy)carbonyl)amino)-3-methylisoxazol-5-y1)-2-methylpyridin-3-yl)carbamoy1)cyclohexane-1-carboxylic acid] | ≥ 1.5 | < 50 | ≤ 50
Cc1noc(-c2ccc(NC(=O)[C@H]3CCCC[C@@H]3C(=O)O)cn2)c1NC(=O)O[C@H](C)c1ccccc1F [Example 34, (1S,2S)-2-((6-(4-((((R)-1-(2-fluorophenyl)ethoxy)carbonyl)amino)-3-methylisoxazol-5-yl)pyridin-3-yl)carbamoyl)cyclohexane-1-carboxylic acid] | ≥ 1.5 | < 50 | ≤ 50

Further lines, with some results ahead:

Papp at 120 min, 10 µM [1] [×10⁻⁶ cm/s] | IC50 [2] [nM] | SMILES | inhibition at 10 min, 50 μM (BSEP) [%]
≥ 1.5 | 50 to 250 | Cc1noc(-c2ccc(NC(=O)[C@H]3CCCC[C@@H]3C(=O)O)cn2)c1NC(=O)OCc1ccccc1Cl [Example 35, (1S,2S)-2-((6-(4-((((2-chlorobenzyl)oxy)carbonyl)amino)-3-methylisoxazol-5-yl)pyridin-3-yl)carbamoyl)cyclohexane-1-carboxylic acid] | ≤ 50
≥ 1.5 | 50 to 250 | Cc1noc(-c2ccc(NC(=O)[C@H]3CCCC[C@@H]3C(=O)O)cn2)c1NC(=O)O[C@H](C)c1ccccc1C(F)(F)F [Example 36, (1S,2S)-2-((6-(3-methyl-4-((((R)-1-(2-(trifluoromethyl)phenyl)ethoxy)carbonyl)amino)isoxazol-5-yl)pyridin-3-yl)carbamoyl)cyclohexane-1-carboxylic acid] | ≤ 50
≥ 1.5 | 50 to 250 | COc1ccccc1[C@@H](C)OC(=O)Nc1c(C)noc1-c1ccc(NC(=O)[C@H]2CCCC[C@@H]2C(=O)O)c(C)n1 [Example 38, (1S,2S)-2-((6-(4-((((R)-1-(2-methoxyphenyl)ethoxy)carbonyl)amino)-3-methylisoxazol-5-yl)-2-methylpyridin-3-yl)carbamoyl)cyclohexane-1-carboxylic acid] | ≤ 50
≥ 1.5 | 50 to 250 | Cc1nc(-c2nnn(C)c2NC(=O)O[C@H](C)C2CCCC2)ccc1NC(=O)[C@H]1CCCC[C@@H]1C(=O)O [Example 46, (1S,2S)-2-((6-(5-((((R)-1-cyclopentylethoxy)carbonyl)amino)-1-methyl-1H-1,2,3-triazol-4-yl)-2-methylpyridin-3-yl)carbamoyl)cyclohexane-1-carboxylic acid] | ≤ 50
≥ 1.5 | 50 to 250 | Cc1nc(-c2cnn(C)c2NC(=O)O[C@H](C)c2ccccc2F)ccc1NC(=O)[C@H]1CCCC[C@@H]1C(=O)O [Example 50, (1S,2S)-2-((6-(5-((((R)-1-(2-fluorophenyl)ethoxy)carbonyl)amino)-1-methyl-1H-pyrazol-4-yl)-2-methylpyridin-3-yl)carbamoyl)cyclohexane-1-carboxylic acid] | ≤ 50

Reference: patent US12454530B2, “Amido cyclohexane acid derivatives as LPA receptor inhibitors” (CHIESI FARMACEUTICI S.P.A., priority 2020, dated 2025)
